Measured values reported in ChEMBL document CHEMBL1201862, “PubChem BioAssay data set” (2004).
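The compound was tested at five concentrations on cells cultured in 96-well plates, with a 48-hour exposure period. GI50 = concentration required for 50% inhibition of growth.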 Activity calls are given as the source filed them. Rule as the data show it: active = GI50 up to about 1.1 µM and inactive = higher.

Columns and labels:
Assay in all cases: DTP human tumour cell line panel, 48 h
Malme-3M = system: Malme-3M
HOP-62 = system: HOP-62
NCI-H226 = system: NCI-H226
OVCAR-5 = system: OVCAR-5
UO-31 = system: UO-31
CCRF-CEM = system: CCRF-CEM
SK-MEL-28 = system: SK-MEL-28
U-251 = system: U-251
HT-29 = system: HT-29
A498 = system: A498
SF-539 = system: SF-539
NCI-H23 = system: NCI-H23
786-0 = system: 786-0
SW-620 = system: SW-620
OVCAR-8 = system: OVCAR-8
LOX IMVI = system: LOX IMVI

Measured: GI50

O=C1c2ccccc2C(=O)c2c(O)c(NCCCNCCO)cc(O)c21
inactive: Malme-3M 17.1 µM | HOP-62 2.44 µM | NCI-H226 5.61 µM | OVCAR-5 11.3 µM | UO-31 5.87 µM | CCRF-CEM 2.47 µM | SK-MEL-28 16.2 µM | U-251 6.15 µM | HT-29 4.16 µM | A498 14.8 µM | SF-539 9.38 µM | NCI-H23 9.18 µM | 786-0 10.5 µM | SW-620 4.33 µM | OVCAR-8 5.79 µM

COc1ccc(C(=O)Nc2ccccc2)cc1[N+](=O)[O-]
inactive: Malme-3M > 100 µM | HOP-62 > 100 µM | NCI-H226 > 100 µM | UO-31 81.5 µM | CCRF-CEM > 100 µM | SK-MEL-28 > 100 µM | U-251 > 100 µM | HT-29 70.3 µM | A498 > 100 µM | SF-539 > 100 µM | NCI-H23 > 100 µM | LOX IMVI > 100 µM | 786-0 > 100 µM | SW-620 > 100 µM | OVCAR-8 > 100 µM

Cc1cc(O)cc2c1O[C@@]1(C)CCC3[C@@]4(C)CC[C@H](O)C(C)(C)C4CC[C@@]3(C)[C@H]1C2 (stereo not given in full)
inactive: Malme-3M 9.06 µM | NCI-H226 10.7 µM | UO-31 8.45 µM | CCRF-CEM 2.55 µM | SK-MEL-28 6.82 µM | U-251 2.84 µM | HT-29 13.3 µM | A498 19.6 µM | SF-539 2.23 µM | NCI-H23 10 µM | LOX IMVI 6.07 µM | 786-0 2.32 µM | SW-620 6.14 µM | OVCAR-8 8.45 µM

CC(NS(=O)(=O)c1ccc([N+](=O)[O-])cc1)C(=O)O (stereo not given)
inactive: Malme-3M > 100 µM | NCI-H226 > 100 µM | OVCAR-5 > 100 µM | UO-31 > 100 µM | CCRF-CEM > 100 µM | SK-MEL-28 > 100 µM | U-251 > 100 µM | HT-29 > 100 µM | A498 > 100 µM | SF-539 > 100 µM | NCI-H23 > 100 µM | LOX IMVI > 100 µM | 786-0 > 100 µM | SW-620 > 100 µM | OVCAR-8 > 100 µM

COC(=O)CC1C(=O)OCc2c1cc1n(c2=O)Cc2c-1nc1ccccc1c2OC (stereo not given)
inactive: Malme-3M > 100 µM | HOP-62 11 µM | OVCAR-5 58.9 µM | UO-31 16.3 µM | CCRF-CEM 6 µM | SK-MEL-28 > 100 µM | U-251 68.9 µM | HT-29 > 100 µM | A498 > 100 µM | NCI-H23 17.3 µM | LOX IMVI 22.5 µM | 786-0 37.3 µM | SW-620 > 100 µM | OVCAR-8 > 100 µM

CN(C)C(=S)/N=c1\ss/c(=N\C(=S)N(C)C)n1Cc1ccco1
inactive: Malme-3M > 100 µM | HOP-62 > 100 µM | NCI-H226 > 100 µM | UO-31 > 100 µM | CCRF-CEM > 100 µM | SK-MEL-28 > 100 µM | U-251 > 100 µM | A498 > 100 µM | SF-539 > 100 µM | 786-0 > 100 µM | SW-620 > 100 µM | OVCAR-8 > 100 µM

N#CSCc1nc2ccc(Cl)cc2c(-c2ccccc2)[n+]1[O-]
inactive: Malme-3M 24.6 µM | HOP-62 > 100 µM | NCI-H226 33.7 µM | OVCAR-5 21 µM | UO-31 18.7 µM | CCRF-CEM 14.5 µM | SK-MEL-28 14.5 µM | U-251 29.4 µM | HT-29 20 µM | A498 > 100 µM | SF-539 > 10 µM | LOX IMVI 18 µM | 786-0 18.2 µM | SW-620 16.6 µM | OVCAR-8 19.7 µM

CCOC(=O)C1=C(C)N(NC(N)=O)C2(N)N(NC(N)=O)C(C)=C(C(=O)OCC)C12C#N (stereo not given)
inactive: Malme-3M > 100 µM | HOP-62 > 100 µM | NCI-H226 > 100 µM | OVCAR-5 > 100 µM | UO-31 > 100 µM | SK-MEL-28 > 100 µM | U-251 > 100 µM | HT-29 > 100 µM | A498 > 100 µM | SF-539 > 100 µM | LOX IMVI > 100 µM | 786-0 > 100 µM | SW-620 > 100 µM | OVCAR-8 > 100 µM

CCC(C)OC(=O)C1C2CCC(O2)C1C(=O)O (stereo not given)
inactive: Malme-3M > 100 µM | HOP-62 > 100 µM | NCI-H226 > 100 µM | OVCAR-5 > 100 µM | UO-31 > 100 µM | CCRF-CEM > 100 µM | SK-MEL-28 > 100 µM | U-251 > 44.3 µM | HT-29 > 43.4 µM | A498 > 47.3 µM | SF-539 99.8 µM | NCI-H23 > 100 µM | LOX IMVI > 41.9 µM | 786-0 > 44.2 µM | OVCAR-8 > 70 µM

O=C(CC1(O)C(=O)Nc2ccccc21)c1ccncc1 (stereo not given)
inactive: NCI-H226 > 100 µM | OVCAR-5 > 100 µM | UO-31 > 100 µM | CCRF-CEM > 100 µM | SK-MEL-28 > 100 µM | U-251 > 100 µM | HT-29 > 100 µM | A498 > 100 µM | SF-539 > 100 µM | NCI-H23 > 100 µM | LOX IMVI > 100 µM | 786-0 > 100 µM | SW-620 > 100 µM

Cc1ccc(/C=C/C(=O)c2cccc3ccccc23)cc1
inactive: Malme-3M 15.3 µM | HOP-62 20.7 µM | NCI-H226 17.8 µM | OVCAR-5 14.4 µM | UO-31 25 µM | CCRF-CEM 15.9 µM | SK-MEL-28 18 µM | U-251 13 µM | HT-29 18.2 µM | A498 13.9 µM | NCI-H23 > 10 µM | LOX IMVI > 10 µM | 786-0 15 µM | SW-620 13.5 µM | OVCAR-8 14.5 µM

CCCCCC(=O)C(C)C1=Nc2nnc(CCCCCCCc3nnc4n3C(=O)C(C(C)C(=O)CCCCC)=N4)n2C1=O (stereo not given)
inactive: Malme-3M > 100 µM | HOP-62 > 100 µM | NCI-H226 > 100 µM | OVCAR-5 > 100 µM | UO-31 > 100 µM | CCRF-CEM > 100 µM | SK-MEL-28 > 100 µM | U-251 > 100 µM | HT-29 > 100 µM | SF-539 > 100 µM | NCI-H23 > 100 µM | LOX IMVI > 100 µM | 786-0 > 100 µM | SW-620 > 100 µM | OVCAR-8 > 100 µM

Cc1c2c(cc[n+]1C)O[B-](c1ccccc1)(c1ccccc1)O2
inactive: Malme-3M 65.5 µM | HOP-62 > 100 µM | NCI-H226 48.6 µM | OVCAR-5 87.3 µM | UO-31 33.7 µM | CCRF-CEM 35.9 µM | U-251 53.2 µM | HT-29 > 100 µM | A498 64 µM | SF-539 95.9 µM | NCI-H23 > 100 µM | LOX IMVI 51.2 µM | 786-0 71.9 µM | SW-620 26.8 µM | OVCAR-8 67.3 µM

CCCN(CCC)C(=O)c1c([N+](=O)[O-])cc(C(F)(F)F)cc1[N+](=O)[O-]
inactive: HOP-62 > 100 µM | NCI-H226 19.3 µM | OVCAR-5 65.5 µM | UO-31 > 100 µM | CCRF-CEM 62.4 µM | SK-MEL-28 > 100 µM | U-251 64.9 µM | HT-29 32.5 µM | A498 75.7 µM | SF-539 41.6 µM | NCI-H23 25.4 µM | LOX IMVI 35.7 µM | 786-0 68.2 µM | SW-620 27.7 µM | OVCAR-8 39.1 µM

CCc1cccc(NC(=O)c2cc(/C=C/c3ccccc3)nc(S)n2)c1
inactive: Malme-3M > 100 µM | HOP-62 > 100 µM | NCI-H226 > 100 µM | OVCAR-5 > 100 µM | UO-31 > 100 µM | CCRF-CEM > 100 µM | SK-MEL-28 > 100 µM | U-251 > 100 µM | HT-29 > 100 µM | A498 > 100 µM | SF-539 > 100 µM | NCI-H23 > 100 µM | 786-0 > 100 µM | SW-620 > 100 µM | OVCAR-8 > 100 µM

O=C1[C@@H]2C(c3cccc([N+](=O)[O-])c3)=NO[C@@H]2C(=O)N1c1ccc(Cc2ccc(N3C(=O)[C@H]4C(c5cccc([N+](=O)[O-])c5)=NO[C@H]4C3=O)cc2)cc1
inactive: Malme-3M > 100 µM | HOP-62 > 100 µM | OVCAR-5 > 100 µM | UO-31 > 100 µM | CCRF-CEM > 100 µM | SK-MEL-28 > 100 µM | U-251 > 10 µM | HT-29 > 100 µM | SF-539 35.9 µM | LOX IMVI > 10 µM | 786-0 91 µM | SW-620 > 100 µM | OVCAR-8 > 10 µM

Cc1ccc(S(=O)(=O)N/N=C2\CCCCC23CCC(=O)NC3)cc1 (stereo not given)
inactive: Malme-3M > 100 µM | HOP-62 > 100 µM | NCI-H226 > 100 µM | UO-31 > 100 µM | CCRF-CEM > 100 µM | SK-MEL-28 > 100 µM | U-251 > 100 µM | A498 > 100 µM | SF-539 > 100 µM | 786-0 > 100 µM | SW-620 > 100 µM | OVCAR-8 > 100 µM

COc1ccc(C2=NC(CO)[C@H](c3ccccc3)O2)cc1OC (stereo not given in full)
inactive: Malme-3M > 100 µM | HOP-62 > 100 µM | NCI-H226 > 100 µM | OVCAR-5 > 100 µM | UO-31 > 100 µM | CCRF-CEM > 100 µM | HT-29 > 100 µM | A498 > 100 µM | SF-539 > 100 µM | LOX IMVI > 100 µM | 786-0 > 100 µM | SW-620 > 100 µM | OVCAR-8 > 100 µM

CC1(C)C(=NNC(=O)C[N+](C)(C)C)C(C)(C)C1=NNC(=O)C[N+](C)(C)C
inactive: Malme-3M > 100 µM | HOP-62 > 100 µM | NCI-H226 > 100 µM | OVCAR-5 > 100 µM | UO-31 > 100 µM | CCRF-CEM > 100 µM | SK-MEL-28 > 100 µM | U-251 > 100 µM | HT-29 > 100 µM | A498 > 100 µM | SF-539 > 100 µM | NCI-H23 > 100 µM | LOX IMVI 72.9 µM | 786-0 > 100 µM | OVCAR-8 > 100 µM
